Data as given in PMC4801406, “MTH1 Substrate Recognition—An Example of Specific Promiscuity” (PLoS ONE, 2016).
“And” between values parts separate entries of the source, which are not always exact repeats. Equal entries are not always repeated. Where two headings read alike, the source gives them in different places.

What was measured:
[1] = target: T1, MTH1 (Homo sapiens, UniProt P36639); conditions: literature value, cited from earlier work
T1 construct: Full length p18 isoform MTH1 (M1-156) with an N-terminal 6-His TEV protease cleavable tag; 6-His (TEV-cleavable) (N, cleaved yes); made in house; host or cells: E. coli Gold BL21(DE3)

[2] = target: T1, MTH1; test: MTH1 substrate Km determination (PPiLight pyrophosphate detection; malachite green coupled assay); assay type: biochemical; conditions: this publication; 0.2 nM MTH1, substrate 0–300 μM
Method: MTH1 substrate Km determination assay conditions were 0.2 nM MTH1 and a concentration range of substrate from 0–300 μM, diluted in MTH1 reaction buffer (100 mM HEPES pH 7.5, 10 mM MgCl, 1 mM DTT and 0.005% Tween 20). After a reaction time of 15 minutes, pyrophosphate (PPi) released by the reaction was detected using the PPiLight inorganic pyrophosphate assay kit from Lonza and luminescence was monitored using the Perkin Elmer EnVision multimode plate reader. Substrates dGTP and 2-OH—dATP were sourced from Jena Bioscience. Substrates 8-oxo-dGTP, 8-oxo-rGTP, 8-oxo-dATP, 8-oxo-rATP and 2-OH-rATP were sourced from TriLink BioTechnologies.
All oxidised ATP-derived substrates were then tested using an assay format based on the enzymatic hydrolysis of the nucleotide substrate by purified human recombinant MTH1 to form the corresponding monophosphate nucleotide and pyrophosphate. An excess of inorganic pyrophosphatase was added to the assay, which allows the quantification of released inorganic phosphate as a measure of product levels in a coupled enzymatic assay. Inorganic phosphate was measured using an absorbance assay based on malachite green as described by Baykov et al.. The assay buffer in which MTH1, inorganic pyrophosphatase and substrates were diluted consisted of 100mM Tris at pH 7.4, 40 mM NaCl, 10 mM MgCl, 0.005% Tween 20 and 1 mM DTT. The final conditions in the assay during enzymatic incubation were 0.2 nM recombinant human MTH1, a three fold dilution range of 0–300 μM oxidised nucleotide substrate and 0.2U per ml inorganic pyrophosphatase.

[3] = target: T1, MTH1; test: 2D-NMR (1H-15N SOFAST-HMQC) titration, Kd from chemical shift perturbations; assay type: binding; conditions: 100 μM 15N-MTH1, 298 K, pH 7.4
Method: Uniformly ^15N-labeled MTH1 was prepared as above with the TB media replaced M9 minimal media supplemented with 5 g/l of IsoGro base powder (^15N, 98%, Isotec) and 2 g/l of glucose. NMR samples were 100 μM in 50mM HEPES pH 7.4, 50 mM NaCl, 1 mM TCEP, 0.1 mM EDTA, 0.02% NaN3 and employing 1% d^6-DMSO as a lock signal. Spectra were acquired at 298 K on a Bruker Avance 600 MHz spectrometer running Topspin 2.1, equipped with a 5mm TCI cryoprobe with Z-axis gradients. The protein was titrated with compound stocks (100 mM in d6-DMSO) to give typical final compound concentrations 0, 50, 100, 198, 396, 593, 984, 1949 and 3824 μM; these were measured using ^1H-^15N-SOFAST-HMQC [17] experiments recorded with […] (t2,t1) complex points (in States-TPPI mode), and 9615x1624 Hz (^1H,^15N) spectral widths, (53.4 ms x 30.8 ms) acquisition times, respectively). The affinity of the compounds was determined via simultaneous nonlinear fitting of fast-exchange chemical shift perturbations (typically 5 amide correlations, employing absolute value of the linear ^1H,^15N chemical shift vector), with the GraFit package against compound concentration using a mass action binding isotherm equation.

[4] = target: T1, MTH1; test: Biochemical IC50 for fragments (Fig 5)
[5] = target: T2, Histidine-tagged MTH1 (isoform p18 (M1-V156)) (Homo sapiens, UniProt P36639); test: Surface plasmon resonance (SPR) equilibrium binding; conditions: steady-state, 1:1 Langmuir fit
T2 construct: Histidine-tagged MTH1 (isoform p18 (M1-V156)) was immobilized; made in house; host or cells: E. coli Gold BL21(DE3)
Method: SPR experiments were performed using a Biacore T200 biosensor (GE Healthcare). Series S NTA sensor chips (GE Healthcare) were used. All experiments were carried out using assay buffer containing; 50 mM HEPES pH 7.5, 150 mM NaCl, 0.005% Tween-20 (v/v) and 1% DMSO (v/v) as running buffer. Typically, 10 mM DMSO stocks of compounds were diluted 1:100 (v/v) in 50 mM HEPES pH 7.5, 150 mM NaCl, 0.005% Tween-20 (v/v) to form 100 μM intermediate stocks with final DMSO concentration of 1% (v/v). The intermediate solutions were then subsequently diluted using assay buffer to achieve final concentration range.
Histidine-tagged MTH1 (isoform p18 (M1-V156)) was immobilized as the ligand onto NTA sensor chips using a capture coupling method. Assay buffer was used as immobilization buffer. The nitrilotriacetic (NTA) surface was first activated with a 2-min injection of 500 μM NiCl2 in running buffer before the carboxymethyl dextran surface was activated with a 7-min injection of a 1:1 ratio of 0.4 M EDC and 0.1 M NHS. His-tagged protein was diluted into running buffer to a concentration of 20 μg/mL and immobilized to the surface with a 7-min injection. Remaining activated groups were blocked with two consecutive 60-sec pulses of 0.5 M Ethanolamine. Typical immobilization levels ranged from 500 to 3000 resonance units (RU).
Biacore T200 Evaluation software (GE Healthcare) was used for data processing and analysis. Equilibrium binding analysis was analyzed by plotting steady-state response level vs. compound concentration and fitting to the Langmuir equation (describing simple 1:1 binary interaction).

Structure (SMILES)	Km ([1]; ref [4],[34]) [µM]	Km [2]	Km ([1]; ref [26]) [µM]	Kd [3] [µM]	IC50 [4] [µM]	Kd [5] [µM]
Nc1ncnc2c1[nH]c(=O)n2[C@@H]1O[C@H](COP(=O)(O)OP(=O)(O)OP(=O)(O)O)[C@@H](O)[C@H]1O [Compound 8-oxo-rATP, 8-oxo-rATP]	51	241 µM and 240 µM				
Nc1nc2c([nH]c(=O)n2[C@@H]2O[C@H](COP(=O)(O)OP(=O)(O)OP(=O)(O)O)[C@@H](O)[C@H]2O)c(=O)[nH]1 [Compound 8-oxo-rGTP, 8-oxo-rGTP]	55	82 ± 45 µM				
Nc1[nH]c(=O)nc2c1ncn2[C@H]1C[C@H](O)[C@@H](COP(=O)(O)OP(=O)(O)OP(=O)(O)O)O1 [Compound 2-OH-dATP, 2-OH-dATP]	8.3	14 ± 6 µM				
Nc1ncnc2c1[nH]c(=O)n2[C@H]1C[C@H](O)[C@@H](COP(=O)(O)OP(=O)(O)OP(=O)(O)O)O1 [Compound 8-oxo-dATP, 8-oxo-dATP]	15.2	7.6 ± 0.5 µM	13.9			
CNc1cc(=O)[nH]c(=O)[nH]1 [Compound 7]				< 5	1.5	0.81
Cn1c(=O)[nH]c2c(=O)[nH]c(N)nc21 [Compound 1]				400	> 100	
CNc1nc2c(ncn2C)c(=O)[nH]1 [Compound 3]				82 ± 6	59	24 ± 0.4
Nc1nc2c(ncn2[C@H]2C[C@H](O)[C@@H](COP(=O)(O)OP(=O)(O)OP(=O)(O)O)O2)c(=O)[nH]1 [dGTP]	258	420 µM				
Cn1cnc2c(O)nc(N)nc21 [Compound 2]				1100	> 100	
Cc1cc(OCCCO)nc(N)n1 [Compound 6]				< 5	4.5	1.7
Nc1[nH]c(=O)nc2c1ncn2[C@@H]1O[C@H](COP(=O)(O)OP(=O)(O)OP(=O)(O)O)[C@@H](O)[C@H]1O [Compound 2-OH-rATP, 2-OH-rATP]	4.3	13.4 µM and 13 µM				
CC(=O)Nc1ccc2c(c1)ncn2C [Compound 5]				95 ± 35	> 80	> 40
CN(C)c1nc2c(ncn2C)c(=O)[nH]1 [Compound 4]				2200	> 100	
